The values below are quoted from earlier work in patent publication US20230201393A1, “DI[…] AND METHODS USING POLYMER COMPOSITIONS THAT FORM CHLORINE DIOXIDE GAS” (priority 2020, published 2023).

The subject of one data set is poliovirus 1. The conditions noted are these: 4 ppm ClO2, 5 minutes of exposure.

Turning to `[O][Cl+][O-]` [Chlorine dioxide], the miscibility in water entry was “up to 60 g/L”. Further, the inactivation in the data set with poliovirus 1 is reported as no less than 99.9%. The survival rate in the data set with Influenza A (0.03 ppm ClO2 administered after, versus 30% when untreated) was 100%. Also, the log kill in the data set on Influenza A (0.03 ppm of ClO2 administered at the same time as the virus) was 4 log.
